Measurements taken from PubChem BioAssay (NCI).
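How tested: cells in 96-well plates exposed to compound for 48 hours at five concentrations. Abbreviation: GI50, concentration required for 50% inhibition of growth. TGI: concentration producing complete growth inhibition.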

How the values were obtained:
Assay in all cases: NCI tumour cell line growth inhibition, 48 h
NCI-H460 lung = tested on: NCI-H460 lung
NCI-H23 lung = tested on: NCI-H23 lung
M14 melanoma = tested on: M14 melanoma
TK-10 renal = tested on: TK-10 renal
CCRF-CEM leukemia = tested on: CCRF-CEM leukemia
RXF 393 renal = tested on: RXF 393 renal
SN12C renal = tested on: SN12C renal
OVCAR-4 ovarian = tested on: OVCAR-4 ovarian
IGROV1 ovarian = tested on: IGROV1 ovarian
PC-3 prostate = tested on: PC-3 prostate
MCF7 breast = tested on: MCF7 breast
SK-MEL-5 melanoma = tested on: SK-MEL-5 melanoma
HCC-2998 colon = tested on: HCC-2998 colon
SF-539 CNS = tested on: SF-539 CNS
UACC-257 melanoma = tested on: UACC-257 melanoma
HOP-92 NSCLC = tested on: HOP-92 NSCLC
HOP-62 NSCLC = tested on: HOP-62 NSCLC
UO-31 renal = tested on: UO-31 renal
SF-295 CNS = tested on: SF-295 CNS
ACHN renal = tested on: ACHN renal
SK-OV-3 ovarian = tested on: SK-OV-3 ovarian
SK-MEL-2 melanoma = tested on: SK-MEL-2 melanoma
SNB-75 CNS = tested on: SNB-75 CNS
SF-268 CNS = tested on: SF-268 CNS
MALME-3M melanoma = tested on: MALME-3M melanoma
DU-145 prostate = tested on: DU-145 prostate
CAKI-1 renal = tested on: CAKI-1 renal
EKVX NSCLC = tested on: EKVX NSCLC
MDA-MB-231 breast = tested on: MDA-MB-231 breast
NCI-H226 lung = tested on: NCI-H226 lung
SK-MEL-28 melanoma = tested on: SK-MEL-28 melanoma
BT-549 breast = tested on: BT-549 breast
SW-620 colon = tested on: SW-620 colon
HS 578T breast = tested on: HS 578T breast
NCI/ADR-RES ovarian = tested on: NCI/ADR-RES ovarian
786-0 renal = tested on: 786-0 renal
A498 renal = tested on: A498 renal
U251 CNS = tested on: U251 CNS
MOLT-4 leukemia = tested on: MOLT-4 leukemia
HCT-15 colon = tested on: HCT-15 colon
K-562 leukemia = tested on: K-562 leukemia
SNB-19 CNS = tested on: SNB-19 CNS
SR leukemia = tested on: SR leukemia
A549 NSCLC = tested on: A549 NSCLC
T-47D breast = tested on: T-47D breast
LOX IMVI melanoma = tested on: LOX IMVI melanoma
NCI-H522 lung = tested on: NCI-H522 lung
OVCAR-5 ovarian = tested on: OVCAR-5 ovarian
OVCAR-3 ovarian = tested on: OVCAR-3 ovarian
RPMI-8226 leukemia = tested on: RPMI-8226 leukemia
UACC-62 melanoma = tested on: UACC-62 melanoma
HL-60(TB) leukemia = tested on: HL-60(TB) leukemia
HT29 colon = tested on: HT29 colon
KM12 colon = tested on: KM12 colon
HCT-116 colon = tested on: HCT-116 colon
OVCAR-8 ovarian = tested on: OVCAR-8 ovarian
MDA-MB-435 = tested on: MDA-MB-435
COLO 205 colon = tested on: COLO 205 colon

For `Cc1[nH]c(/C=C2\C(=O)Nc3ccc(F)cc32)c(C)c1C(=O)NC[C@H](O)CN1CCOCC1`, the GI50 (NCI-H460 lung) was 2390 nM, the TGI (NCI-H460 lung) was > 10 µM and the GI50 (NCI-H23 lung) was 2410 nM. For the same compound, the TGI (NCI-H23 lung) was > 10 µM, the GI50 (M14 melanoma) was 943 nM and the TGI (M14 melanoma) was > 10 µM. For the same compound, the GI50 (TK-10 renal) was 5.37 µM, the TGI (TK-10 renal) was > 10 µM and the GI50 (CCRF-CEM leukemia) was 62.4 nM. The TGI (CCRF-CEM leukemia) was > 10 µM, the GI50 (RXF 393 renal) was 2330 nM and the TGI (RXF 393 renal) was > 10 µM. The GI50 (SN12C renal) was 3.05 µM, the TGI (SN12C renal) was > 10 µM and the GI50 (OVCAR-4 ovarian) was 7.95 µM. For the same compound, the TGI (OVCAR-4 ovarian) was > 10 µM, the GI50 (IGROV1 ovarian) was 2730 nM and the TGI (IGROV1 ovarian) was > 10 µM. For the same compound, the GI50 (PC-3 prostate) was 2640 nM, the TGI (PC-3 prostate) was > 10 µM and the GI50 (MCF7 breast) was 3.11 µM. The TGI (MCF7 breast) was > 10 µM, the GI50 (SK-MEL-5 melanoma) was 4.04 µM and the TGI (SK-MEL-5 melanoma) was > 10 µM. The GI50 (HCC-2998 colon) was 5.17 µM, the TGI (HCC-2998 colon) was > 10 µM and the GI50 (SF-539 CNS) was 4.31 µM. For the same compound, the TGI (SF-539 CNS) was > 10 µM, the GI50 (UACC-257 melanoma) was 8.67 µM and the TGI (UACC-257 melanoma) was > 10 µM. The GI50 (HOP-92 NSCLC) was 1170 nM, the TGI (HOP-92 NSCLC) was 6.84 µM and the GI50 (HOP-62 NSCLC) was 4.41 µM. For the same compound, the TGI (HOP-62 NSCLC) was > 10 µM, the GI50 (UO-31 renal) was 1470 nM and the TGI (UO-31 renal) was > 10 µM. The GI50 (SF-295 CNS) was > 10 µM, the TGI (SF-295 CNS) was > 10 µM and the GI50 (ACHN renal) was 3.49 µM. For the same compound, the TGI (ACHN renal) was > 10 µM, the GI50 (SK-OV-3 ovarian) was 2950 nM and the TGI (SK-OV-3 ovarian) was > 10 µM. For the same compound, the GI50 (SK-MEL-2 melanoma) was 2160 nM, the TGI (SK-MEL-2 melanoma) was 8.68 µM and the GI50 (SNB-75 CNS) was 7.33 µM. For the same compound, the TGI (SNB-75 CNS) was > 10 µM, the GI50 (SF-268 CNS) was 4.83 µM and the TGI (SF-268 CNS) was > 10 µM. For the same compound, the GI50 (MALME-3M melanoma) was 4.21 µM, the TGI (MALME-3M melanoma) was > 10 µM and the GI50 (DU-145 prostate) was 3.65 µM. The TGI (DU-145 prostate) was > 10 µM, the GI50 (CAKI-1 renal) was 1660 nM and the TGI (CAKI-1 renal) was > 10 µM. The GI50 (EKVX NSCLC) was 8.02 µM, the TGI (EKVX NSCLC) was > 10 µM and the GI50 (MDA-MB-231 breast) was 4.25 µM. For the same compound, the TGI (MDA-MB-231 breast) was > 10 µM, the GI50 (NCI-H226 lung) was 2330 nM and the TGI (NCI-H226 lung) was > 10 µM. For the same compound, the GI50 (SK-MEL-28 melanoma) was 4.16 µM, the TGI (SK-MEL-28 melanoma) was > 10 µM and the GI50 (BT-549 breast) was 6.47 µM. For the same compound, the TGI (BT-549 breast) was > 10 µM, the GI50 (SW-620 colon) was 2300 nM and the TGI (SW-620 colon) was > 10 µM. The GI50 (HS 578T breast) was 2120 nM, the TGI (HS 578T breast) was > 10 µM and the GI50 (NCI/ADR-RES ovarian) was > 10 µM. For the same compound, the TGI (NCI/ADR-RES ovarian) was > 10 µM, the GI50 (786-0 renal) was 4.91 µM and the TGI (786-0 renal) was > 10 µM. The GI50 (A498 renal) was 3.29 µM, the TGI (A498 renal) was > 10 µM and the GI50 (U251 CNS) was 6.65 µM. The TGI (U251 CNS) was > 10 µM, the GI50 (MOLT-4 leukemia) was 2610 nM and the TGI (MOLT-4 leukemia) was > 10 µM. The GI50 (HCT-15 colon) was 2830 nM, the TGI (HCT-15 colon) was > 10 µM and the GI50 (K-562 leukemia) was 4.96 µM. The TGI (K-562 leukemia) was > 10 µM, the GI50 (SNB-19 CNS) was > 10 µM and the TGI (SNB-19 CNS) was > 10 µM. The GI50 (SR leukemia) was 3.41 µM, the TGI (SR leukemia) was > 10 µM and the GI50 (A549 NSCLC) was 6.02 µM. For the same compound, the TGI (A549 NSCLC) was > 10 µM, the GI50 (T-47D breast) was > 10 µM and the TGI (T-47D breast) was > 10 µM. The GI50 (LOX IMVI melanoma) was 2330 nM, the TGI (LOX IMVI melanoma) was > 10 µM and the GI50 (NCI-H522 lung) was > 10 µM. The TGI (NCI-H522 lung) was > 10 µM, the GI50 (OVCAR-5 ovarian) was 2850 nM and the TGI (OVCAR-5 ovarian) was > 10 µM. For the same compound, the GI50 (OVCAR-3 ovarian) was > 10 µM, the TGI (OVCAR-3 ovarian) was > 10 µM and the GI50 (RPMI-8226 leukemia) was 3.54 µM. The TGI (RPMI-8226 leukemia) was > 10 µM, the GI50 (UACC-62 melanoma) was 3.55 µM and the TGI (UACC-62 melanoma) was > 10 µM. The GI50 (HL-60(TB) leukemia) was 1030 nM, the TGI (HL-60(TB) leukemia) was 5.43 µM and the GI50 (HT29 colon) was 2910 nM. For the same compound, the TGI (HT29 colon) was > 10 µM, the GI50 (KM12 colon) was 69.1 nM and the TGI (KM12 colon) was > 10 µM. For the same compound, the GI50 (HCT-116 colon) was 2420 nM, the TGI (HCT-116 colon) was > 10 µM and the GI50 (OVCAR-8 ovarian) was 5.41 µM. The TGI (OVCAR-8 ovarian) was > 10 µM, the GI50 (MDA-MB-435) was 3.2 µM and the TGI (MDA-MB-435) was > 10 µM. For the same compound, the GI50 (COLO 205 colon) was 3.41 µM and the TGI (COLO 205 colon) was > 10 µM.
